This is an account of results in the supplement of paper PMC11003180.

Common to all, as to assay: drug sensitivity score (DSS) from 5-dose viability curve (DSS (area-based score, 0 = no response)); higher = more sensitive (stronger viability inhibition); extreme values may be limits of the assay
Experiment [1] relates to MDCK wild-type - doxycycline. The following applies: doxycycline: none; 72 h. A digest of the protocol: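 Parental MDCK cells without doxycycline were dispensed at 2000 cells/well onto pre-spotted 384-well plates. The plates held an oncology library of 528 drugs at five doses (1-10,000 nM) and were incubated 72 h at 37 °C. Viability was read as CellTiter-Glo luminescence and scaled per plate between vehicle and positive controls. Drug sensitivity scores came from dose-response curve fits in the Breeze pipeline.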

The test system of experiment [2] is MDCK p60AmotL2-inducible + doxycycline (p60AmotL2 expressing). As to conditions: doxycycline: 10 ng/mL; 72 h. A digest of the protocol:
(§1)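 Parental MDCK cells and MDCK cells with a doxycycline-inducible transgene were both grown with doxycycline at 10 ng/mL in the medium before plating, then dispensed at 2000 cells/well into 384-well plates pre-spotted with an oncology library of 528 drugs at five doses (1-10,000 nM). After 72 h at 37 °C, CellTiter-Glo luminescence was recorded and scaled on each plate between vehicle and positive controls. This scaled signal served as the viability readout, and drug sensitivity scores were derived from dose-response curve fits in the Breeze pipeline.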

Experiment [3] has as its system MDCK wild-type + doxycycline. The following applies: doxycycline: 10 ng/mL; 72 h. A digest of the protocol:
as §1

As for `c1cn2cc(-c3ccc4cn[nH]c4c3)nc(Nc3ccc(N4CCOCC4)cc3)c2n1` [Entospletinib], the drug sensitivity score in experiment [1], in experiment [2] and in experiment [3] was 0 each time.
Regarding `CN1CCN(c2ccc(C(=O)Nc3n[nH]c4ccc(Cc5cc(F)cc(F)c5)cc34)c(NC3CCOCC3)c2)CC1` [Entrectinib], the values for the drug sensitivity score in experiment [1], in experiment [2] and in experiment [3] were 0, 0.6 and 0, respectively.
As to `CNC(=O)c1ccc(N2C(=S)N(c3ccc(C#N)c(C(F)(F)F)c3)C(=O)C2(C)C)cc1F` [Enzalutamide], the drug sensitivity score in experiment [1], in experiment [2] and in experiment [3] was 0 in each case.
Turning to `Cn1cc(C2=C(c3cn(C4CCN(Cc5ccccn5)CC4)c4ccccc34)C(=O)NC2=O)c2ccccc21` [Enzastaurin], the drug sensitivity score in experiment [1], in experiment [2] and in experiment [3] was 0 each time.
For the compound `NS(=O)(=O)NCCNc1nonc1/C(=N/O)Nc1ccc(F)c(Br)c1` [Epacadostat], the drug sensitivity score in experiment [1], in experiment [2] and in experiment [3] was 0 each time.
`COc1cccc2c1C(=O)c1c(O)c3c(c(O)c1C2=O)C[C@@](O)(C(=O)CO)C[C@@H]3O[C@H]1C[C@H](N)[C@@H](O)[C@H](C)O1` [Epirubicin]: the drug sensitivity score stood at 5.9 in experiment [1], 11.6 in experiment [2] and 10 in experiment [3].
The corresponding values for `CCOc1ccccc1-n1c(C(C)N2CCN(C(=O)COc3ccc(Cl)cc3)CC2)nc2ccccc2c1=O` (centres undefined) [Erastin] are 0, 0 and 0.
The corresponding values for `COc1cc(OC)cc(N(CCNC(C)C)c2ccc3ncc(-c4cnn(C)c4)nc3c2)c1` [Erdafitinib] are 0, 0 and 0.
The corresponding values for `C=C1C[C@@H]2CC[C@@]34C[C@H]5O[C@H]6[C@@H](O3)[C@H]3O[C@H](CC[C@@H]3O[C@H]6[C@H]5O4)CC(=O)C[C@@H]3[C@@H](OC)[C@@H](C[C@H](O)CN)O[C@H]3C[C@H]3O[C@@H](CC[C@@H]1O2)C[C@@H](C)C3=C` [Eribulin] are 17.3, 23.4 and 22.5.
Consider `C#Cc1cccc(Nc2ncnc3cc(OCCOC)c(OCCOC)cc23)c1` [Erlotinib], for which the drug sensitivity score in experiment [1] came to 3.4; in experiment [2], 15.4; in experiment [3], 4.5.
The corresponding values for `COc1cc([C@@H]2c3cc4c(cc3[C@@H](O[C@@H]3O[C@@H]5CO[C@@H](C)O[C@H]5[C@H](O)[C@H]3O)[C@H]3COC(=O)[C@H]23)OCO4)cc(OC)c1O` [Etoposide] are 4.3, 9.5 and 6.9.
The corresponding values for `CO[C@H]1C[C@@H]2CC[C@@H](C)[C@@](O)(O2)C(=O)C(=O)N2CCCC[C@H]2C(=O)O[C@H]([C@H](C)C[C@@H]2CC[C@@H](OCCO)[C@H](OC)C2)CC(=O)[C@H](C)/C=C(\C)[C@@H](O)[C@@H](OC)C(=O)[C@H](C)C[C@H](C)/C=C/C=C/C=C/1C` [Everolimus] are 2.1, 8 and 2.1.
Turning to `C=C1C[C@@H]2[C@H](CC[C@]3(C)C(=O)CC[C@@H]23)[C@@]2(C)C=CC(=O)C=C12` [Exemestane], the drug sensitivity score in experiment [1], in experiment [2] and in experiment [3] was 0 throughout.
As for `CCn1c(=O)c(-c2ccc(Cl)cc2Cl)cc2cnc(Nc3ccc(N4CCNCC4)c(F)c3)nc21` [FRAX486], the drug sensitivity score in experiment [1] is 1.7; in experiment [2], 2.3; in experiment [3] it was 0.
The corresponding values for `Cc1cnc(Nc2ccc(OCCN3CCCC3)cc2)nc1Nc1cccc(S(=O)(=O)NC(C)(C)C)c1` [Fedratinib] are 6, 6.9 and 5.7.
The corresponding values for `CON(C)C(=O)N1N=C(c2cc(F)ccc2F)S[C@@]1(CCCN)c1ccccc1` [Filanesib] are 29.1, 27.5 and 28.7.
The corresponding values for `O=C(Nc1nc2cccc(-c3ccc(CN4CCS(=O)(=O)CC4)cc3)n2n1)C1CC1` [Filgotinib] are 0, 0 and 0.
For `CC(C)(C)NC(=O)[C@H]1CC[C@H]2[C@@H]3CC[C@H]4NC(=O)C=C[C@]4(C)[C@H]3CC[C@]12C` [Finasteride], the drug sensitivity score in experiment [1], in experiment [2] and in experiment [3] was 0 each time.
Turning to `CCCCCCCCc1ccc(CCC(N)(CO)CO)cc1` [Fingolimod], the drug sensitivity score in experiment [1] worked out at 6.7; in experiment [2] it was 6.7; in experiment [3] it was 8.7.
With `O=c1[nH]c(=O)n([C@H]2C[C@H](O)[C@@H](CO)O2)cc1F` [Floxuridine], the drug sensitivity score in experiment [1] came to 18.2; in experiment [2] it was 22.7; in experiment [3], 21.7.
Consider `Nc1nc(F)nc2c1ncn2[C@@H]1O[C@H](CO)[C@@H](O)[C@@H]1O` [Fludarabine], for which the drug sensitivity score in experiment [1], in experiment [2] and in experiment [3] was 0 each time.
Turning to `O=c1[nH]cc(F)c(=O)[nH]1` [Fluorouracil], the figures for the drug sensitivity score in experiment [1], in experiment [2] and in experiment [3] were 8.6, 9.2 and 9.7, respectively.
In the case of `CC(C)C(=O)Nc1ccc([N+](=O)[O-])c(C(F)(F)F)c1` [Flutamide], the drug sensitivity score in experiment [1], in experiment [2] and in experiment [3] was 0 each time.
On to `COc1cc2c(Oc3ccc(NC(=O)C4(C(=O)Nc5ccc(F)cc5)CC4)cc3F)ccnc2cc1OCCCN1CCOCC1` [Foretinib], for which the drug sensitivity score came out at 0 in experiment [1], 2.8 in experiment [2] and 1.2 in experiment [3].
Consider `COc1cc(Nc2ncc(F)c(Nc3ccc4c(n3)N(COP(=O)(O)O)C(=O)C(C)(C)O4)n2)cc(OC)c1OC` [Fostamatinib], for which the drug sensitivity score in experiment [1] came out at 0.7; in experiment [2], 4.6; in experiment [3], 1.8.
The corresponding values for `C[C@]12CC[C@@H]3c4ccc(O)cc4C[C@@H](CCCCCCCCC[S+]([O-])CCCC(F)(F)C(F)(F)F)[C@H]3[C@@H]1CC[C@@H]2O` (some centres undefined) [Fulvestrant] are 0, 0 and 0.
The corresponding values for `CC1(C)OCCn2c1nc1c(N3CCOCC3)nc(-c3cnc(N)nc3)nc12` [GDC-0084] are 7, 14.9 and 10.2.
The corresponding values for `O=C(NOCCO)c1ccc2cncn2c1Nc1ccc(I)cc1F` [GDC-0623] are 1.4, 0.3 and 0.
